Results taken from ChEMBL document CHEMBL1142186, “Multistep resistance selection and postantibiotic-effect studies of the antipneumococcal activity of LBM415 compared to other agents” (2007).

Tests used:
Type in all cases: functional
Streptococcus pneumoniae [1] = test: Antibacterial activity against clarithromycin resistance selected Streptococcus pneumoniae 3676 after 10 antibiotic-free subcultures by macrodilution method
Streptococcus pneumoniae [2] = test: Antibacterial activity against levofloxacin resistance selected Streptococcus pneumoniae 19 with GyrA S81Y and ParC D83Y mutation after 10 antibiotic-free subcultures by macrodilution method
Streptococcus pneumoniae [3] = test: Antibacterial activity against azithromycin resistance selected Streptococcus pneumoniae 2527 after 10 antibiotic-free subcultures by macrodilution method
Streptococcus pneumoniae [4] = test: Antibacterial activity against moxifloxacin resistance selected Streptococcus pneumoniae 3665 with GyrA S81Y mutation after 10 antibiotic-free subcultures by macrodilution method
Streptococcus pneumoniae [5] = test: Antibacterial activity against […] resistance selected Streptococcus pneumoniae 37 with PDF G69R, P76R mutation after 50 passages by macrodilution method
Streptococcus pneumoniae [6] = test: Antibacterial activity against Streptococcus pneumoniae 37 by macrodilution method
Streptococcus pneumoniae [7] = test: Antibacterial activity against […] resistance selected Streptococcus pneumoniae 3676 with PDF R135C mutation after 20 passages by macrodilution method
Streptococcus pneumoniae [8] = test: Antibacterial activity against gatifloxacin resistance selected Streptococcus pneumoniae 37 with GyrA S81Y, GyrB E474K and ParC S79Y mutation after 10 antibiotic-free subcultures by macrodilution method
Streptococcus pneumoniae [9] = test: Antibacterial activity against Streptococcus pneumoniae 3665 by macrodilution method
Streptococcus pneumoniae [10] = test: Antibacterial activity against […] resistance selected Streptococcus pneumoniae 1077 with PDF D176N mutation after 10 antibiotic-free subcultures by macrodilution method
Streptococcus pneumoniae [11] = test: Antibacterial activity against Streptococcus pneumoniae 1076 by macrodilution method
Streptococcus pneumoniae [12] = test: Antibacterial activity against Streptococcus pneumoniae 19 by macrodilution method
Streptococcus pneumoniae [13] = test: Antibacterial activity against […] resistance selected Streptococcus pneumoniae 1077 with PDF D176N mutation after 24 passages by macrodilution method
Streptococcus pneumoniae [14] = test: Antibacterial activity against moxifloxacin resistance selected Streptococcus pneumoniae 3243 after 10 antibiotic-free subcultures by macrodilution method
Streptococcus pneumoniae [15] = test: Antibacterial activity against […] resistance selected Streptococcus pneumoniae 3243 with PDF G69C, Q172H mutation after 10 antibiotic-free subcultures by macrodilution method
Streptococcus pneumoniae [16] = test: Antibacterial activity against Streptococcus pneumoniae 24 by macrodilution method
Streptococcus pneumoniae [17] = test: Antibacterial activity against […] resistance selected Streptococcus pneumoniae 3009 with PDF G69V mutation after 10 antibiotic-free subcultures by macrodilution method
Streptococcus pneumoniae [18] = test: Antibacterial activity against […] resistance selected Streptococcus pneumoniae 24 with PDF G139F mutation after 10 antibiotic-free subcultures by macrodilution method
Streptococcus pneumoniae [19] = test: Antibacterial activity against […] resistance selected Streptococcus pneumoniae 3243 with PDF G69C, Q172H mutation after 20 passages by macrodilution method
Streptococcus pneumoniae [20] = test: Antibacterial activity against clarithromycin resistance selected Streptococcus pneumoniae 3243 with 23S rRNA A2059T mutation after 10 antibiotic-free subcultures by macrodilution method
Streptococcus pneumoniae [21] = test: Antibacterial activity against […] resistance selected Streptococcus pneumoniae 19 with after 14 passages by macrodilution method
Streptococcus pneumoniae [22] = test: Antibacterial activity against Streptococcus pneumoniae 3009 by macrodilution method
Streptococcus pneumoniae [23] = test: Antibacterial activity against Streptococcus pneumoniae 2527 by macrodilution method
Streptococcus pneumoniae [24] = test: Antibacterial activity against gatifloxacin resistance selected Streptococcus pneumoniae 1076 with ParC S79Y mutation after 10 antibiotic-free subcultures by macrodilution method
Streptococcus pneumoniae [25] = test: Antibacterial activity against clarithromycin resistance selected Streptococcus pneumoniae 3665 after 10 antibiotic-free subcultures by macrodilution method
Streptococcus pneumoniae [26] = test: Antibacterial activity against […] resistance selected Streptococcus pneumoniae 2527 after 27 passages by macrodilution method
Streptococcus pneumoniae [27] = test: Antibacterial activity against Streptococcus pneumoniae 3243 by macrodilution method
Streptococcus pneumoniae [28] = test: Antibacterial activity against […] resistance selected Streptococcus pneumoniae 3413 after 14 passages by macrodilution method
Streptococcus pneumoniae [29] = test: Antibacterial activity against Streptococcus pneumoniae 1077 by macrodilution method
Streptococcus pneumoniae [30] = test: Antibacterial activity against moxifloxacin resistance selected Streptococcus pneumoniae 24 with GyrA S81Y, GyrB P413S and ParC S79F mutation after 10 antibiotic-free subcultures by macrodilution method
Streptococcus pneumoniae [31] = test: Antibacterial activity against Streptococcus pneumoniae 3676 by macrodilution method
Streptococcus pneumoniae [32] = test: Antibacterial activity against moxifloxacin resistance selected Streptococcus pneumoniae 3676 with GyrA E85G, GyrB S478I and ParC S79Y mutation after 10 antibiotic-free subcultures by macrodilution method
Streptococcus pneumoniae [33] = test: Antibacterial activity against levofloxacin resistance selected Streptococcus pneumoniae 3009 with GyrA S81Y and ParC S79Y mutation after 10 antibiotic-free subcultures by macrodilution method
Streptococcus pneumoniae [34] = test: Antibacterial activity against […] resistance selected Streptococcus pneumoniae 3009 with PDF G69V mutation after 14 passages by macrodilution method
Streptococcus pneumoniae [35] = test: Antibacterial activity against azithromycin resistance selected Streptococcus pneumoniae 1077 with 23S rRNA A2058G mutation after 10 antibiotic-free subcultures by macrodilution method
Streptococcus pneumoniae [36] = test: Antibacterial activity against gatifloxacin resistance selected Streptococcus pneumoniae 3009 after 10 antibiotic-free subcultures by macrodilution method
Streptococcus pneumoniae [37] = test: Antibacterial activity against […] resistance selected Streptococcus pneumoniae 2527 after 10 antibiotic-free subcultures by macrodilution method
Streptococcus pneumoniae [38] = test: Antibacterial activity against moxifloxacin resistance selected Streptococcus pneumoniae 1076 with ParC S79Y mutation after 10 antibiotic-free subcultures by macrodilution method
Streptococcus pneumoniae [39] = test: Antibacterial activity against azithromycin resistance selected Streptococcus pneumoniae 3243 with L22 insertion 93SFRPRA94 mutation after 10 antibiotic-free subcultures by macrodilution method
Streptococcus pneumoniae [40] = test: Antibacterial activity against […] resistance selected Streptococcus pneumoniae 37 with PDF G69R, P76R mutation after 10 antibiotic-free subcultures by macrodilution method
Streptococcus pneumoniae [41] = test: Antibacterial activity against […] resistance selected Streptococcus pneumoniae 3665 with after 10 antibiotic-free subcultures by macrodilution method
Streptococcus pneumoniae [42] = test: Antibacterial activity against […] resistance selected Streptococcus pneumoniae 24 with PDF G139F mutation after 27 passages by macrodilution method
Streptococcus pneumoniae [43] = test: Antibacterial activity against […] resistance selected Streptococcus pneumoniae 1076 with PDF D176N mutation after 39 passages by macrodilution method
Streptococcus pneumoniae [44] = test: Antibacterial activity against […] resistance selected Streptococcus pneumoniae 3665 with after 27 passages by macrodilution method
Streptococcus pneumoniae [45] = test: Antibacterial activity against […] resistance selected Streptococcus pneumoniae 1076 with PDF D176N mutation after 10 antibiotic-free subcultures by macrodilution method
Streptococcus pneumoniae [46] = test: Antibacterial activity against Streptococcus pneumoniae assessed as period of suppression of bacterial growth
Streptococcus pneumoniae [47] = test: Antibacterial activity against […] resistance selected Streptococcus pneumoniae 3676 with PDF R135C mutation after 10 antibiotic-free subcultures by macrodilution method
Streptococcus pneumoniae [48] = test: Antibacterial activity against Streptococcus pneumoniae 3413 by macrodilution method
Streptococcus pneumoniae [49] = test: Antibacterial activity against […] resistance selected Streptococcus pneumoniae 19 with after 10 antibiotic-free subcultures by macrodilution method
Streptococcus pneumoniae [50] = test: Antibacterial activity against […] resistance selected Streptococcus pneumoniae 3413 after 10 antibiotic-free subcultures by macrodilution method
Streptococcus pneumoniae [51] = test: Antibacterial activity against clarithromycin resistance selected Streptococcus pneumoniae 3009 after 10 antibiotic-free subcultures by macrodilution method
Streptococcus pneumoniae [52] = test: Antibacterial activity against moxifloxacin resistance selected Streptococcus pneumoniae 19 with GyrA S81F mutation after 10 antibiotic-free subcultures by macrodilution method
Streptococcus pneumoniae [53] = test: Antibacterial activity against moxifloxacin resistance selected Streptococcus pneumoniae 3009 with GyrA S81F and ParC D83N mutation after 10 antibiotic-free subcultures by macrodilution method

CCCC[C@H](CN(O)C=O)C(=O)N1CCC[C@H]1C(=O)Nc1ccc(F)c[n+]1[O-]
0.5 µg/mL: MIC (Streptococcus pneumoniae [3]) | MIC (Streptococcus pneumoniae [4]) | MIC (Streptococcus pneumoniae [16]) | MIC (Streptococcus pneumoniae [20]) | MIC (Streptococcus pneumoniae [27]) | MIC (Streptococcus pneumoniae [29]) | MIC (Streptococcus pneumoniae [33]) | MIC (Streptococcus pneumoniae [37]) | MIC (Streptococcus pneumoniae [39]) | MIC (Streptococcus pneumoniae [52]) | MIC (Streptococcus pneumoniae [53])
2 µg/mL: MIC (Streptococcus pneumoniae [7]) | MIC (Streptococcus pneumoniae [8]) | MIC (Streptococcus pneumoniae [18]) | MIC (Streptococcus pneumoniae [28]) | MIC (Streptococcus pneumoniae [36]) | MIC (Streptococcus pneumoniae [40]) | MIC (Streptococcus pneumoniae [45]) | MIC (Streptococcus pneumoniae [47]) | MIC (Streptococcus pneumoniae [49])
4 µg/mL: MIC (Streptococcus pneumoniae [10]) | MIC (Streptococcus pneumoniae [19]) | MIC (Streptococcus pneumoniae [21]) | MIC (Streptococcus pneumoniae [26]) | MIC (Streptococcus pneumoniae [42]) | MIC (Streptococcus pneumoniae [44])
8 µg/mL: MIC (Streptococcus pneumoniae [13]) | MIC (Streptococcus pneumoniae [43])
1 h: Post Antibiotic Effe (Streptococcus pneumoniae [46])
0.03 µg/mL: MIC (Streptococcus pneumoniae [14])
0.125 µg/mL: MIC (Streptococcus pneumoniae [1]) | MIC (Streptococcus pneumoniae [30]) | MIC (Streptococcus pneumoniae [31]) | MIC (Streptococcus pneumoniae [32]) | MIC (Streptococcus pneumoniae [38])
1 µg/mL: MIC (Streptococcus pneumoniae [2]) | MIC (Streptococcus pneumoniae [6]) | MIC (Streptococcus pneumoniae [15]) | MIC (Streptococcus pneumoniae [22]) | MIC (Streptococcus pneumoniae [41]) | MIC (Streptococcus pneumoniae [50]) | MIC (Streptococcus pneumoniae [51])
> 16 µg/mL: MIC (Streptococcus pneumoniae [17]) | MIC (Streptococcus pneumoniae [34])
16 µg/mL: MIC (Streptococcus pneumoniae [5])
0.25 µg/mL: MIC (Streptococcus pneumoniae [9]) | MIC (Streptococcus pneumoniae [11]) | MIC (Streptococcus pneumoniae [12]) | MIC (Streptococcus pneumoniae [23]) | MIC (Streptococcus pneumoniae [24]) | MIC (Streptococcus pneumoniae [25]) | MIC (Streptococcus pneumoniae [35]) | MIC (Streptococcus pneumoniae [48])

C=CC1=C(C(=O)O)N2C(=O)[C@@H](NC(=O)/C(=N\O)c3csc(N)n3)[C@H]2SC1
16 µg/mL: MIC (Streptococcus pneumoniae [3])
1.6 h: Post Antibiotic Effe (Streptococcus pneumoniae [46])
2 µg/mL: MIC (Streptococcus pneumoniae [30]) | MIC (Streptococcus pneumoniae [52])
0.06 µg/mL: MIC (Streptococcus pneumoniae [1]) | MIC (Streptococcus pneumoniae [14]) | MIC (Streptococcus pneumoniae [33]) | MIC (Streptococcus pneumoniae [35]) | MIC (Streptococcus pneumoniae [38]) | MIC (Streptococcus pneumoniae [53])
4 µg/mL: MIC (Streptococcus pneumoniae [2]) | MIC (Streptococcus pneumoniae [8])
0.25 µg/mL: MIC (Streptococcus pneumoniae [20]) | MIC (Streptococcus pneumoniae [25])
0.125 µg/mL: MIC (Streptococcus pneumoniae [4]) | MIC (Streptococcus pneumoniae [24]) | MIC (Streptococcus pneumoniae [32]) | MIC (Streptococcus pneumoniae [36]) | MIC (Streptococcus pneumoniae [39]) | MIC (Streptococcus pneumoniae [51])

CO/N=C(\C(=O)N[C@@H]1C(=O)N2C(C(=O)O)=C(CSc3nc(=O)c(O)nn3C)CS[C@H]12)c1csc(N)n1 [CEFTRIAXONE]
0.125 µg/mL: MIC (Streptococcus pneumoniae [20]) | MIC (Streptococcus pneumoniae [39])
≤ 0.008 µg/mL: MIC (Streptococcus pneumoniae [14])
1.3 h: Post Antibiotic Effe (Streptococcus pneumoniae [46])
2 µg/mL: MIC (Streptococcus pneumoniae [2]) | MIC (Streptococcus pneumoniae [3]) | MIC (Streptococcus pneumoniae [8]) | MIC (Streptococcus pneumoniae [52])
0.06 µg/mL: MIC (Streptococcus pneumoniae [4])
0.03 µg/mL: MIC (Streptococcus pneumoniae [1]) | MIC (Streptococcus pneumoniae [25]) | MIC (Streptococcus pneumoniae [32]) | MIC (Streptococcus pneumoniae [35]) | MIC (Streptococcus pneumoniae [53])
0.016 µg/mL: MIC (Streptococcus pneumoniae [24]) | MIC (Streptococcus pneumoniae [33]) | MIC (Streptococcus pneumoniae [36]) | MIC (Streptococcus pneumoniae [38]) | MIC (Streptococcus pneumoniae [51])
1 µg/mL: MIC (Streptococcus pneumoniae [30])
